According to US20050222146A1, “N-substituted-n-sulfonylaminocyclopropane compounds and pharmaceutical use thereof” (priority 2003, published 2005):

Columns and labels:
Type in all cases: biochemical
aggrecanase-1 = molecular target: T1, aggrecanase-1 (Homo sapiens, UniProt O75173); experiment: Aggrecanase-1 inhibitory action, Particle Assay (GAG release from aggrecan-containing polyacrylamide particles); settings: 37° C. for 15 hr, read-out: Experimental Example 1 IC50 AG1
T1 sequence (O75173 213-837): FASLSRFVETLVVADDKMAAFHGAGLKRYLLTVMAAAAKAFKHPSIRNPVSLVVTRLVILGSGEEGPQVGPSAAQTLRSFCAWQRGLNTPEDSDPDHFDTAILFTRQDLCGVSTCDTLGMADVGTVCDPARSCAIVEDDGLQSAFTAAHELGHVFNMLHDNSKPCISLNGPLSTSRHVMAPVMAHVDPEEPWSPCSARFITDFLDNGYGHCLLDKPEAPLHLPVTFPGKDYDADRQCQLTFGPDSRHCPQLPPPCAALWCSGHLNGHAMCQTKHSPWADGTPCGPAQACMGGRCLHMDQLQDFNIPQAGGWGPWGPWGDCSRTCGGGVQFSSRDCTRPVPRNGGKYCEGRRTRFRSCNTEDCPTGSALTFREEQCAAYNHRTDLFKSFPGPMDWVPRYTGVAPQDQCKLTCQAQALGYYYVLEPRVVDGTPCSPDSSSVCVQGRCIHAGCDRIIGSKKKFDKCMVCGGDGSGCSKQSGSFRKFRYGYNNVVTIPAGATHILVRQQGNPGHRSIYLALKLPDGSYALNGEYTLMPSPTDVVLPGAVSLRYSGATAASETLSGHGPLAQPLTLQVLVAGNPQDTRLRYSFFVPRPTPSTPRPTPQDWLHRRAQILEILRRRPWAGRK
Summary of the method: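 Enzyme and test compound (DMSO dilutions) in Tris-HCl buffer incubated with aggrecan-containing polyacrylamide particles at 37 °C for 15 hr. Released GAG in supernatant quantified with 1,9-dimethylmethylene blue at 595 nm against whale chondroitin sulfate standard; % inhibition versus enzyme-free and inhibitor-free wells gives IC50 (μM).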

Recombinant Human MMP-13 = molecular target: T2, Recombinant Human MMP-13 (Homo sapiens, UniProt P45452); experiment: MMP-13 inhibition, MMP-13 specific fluorescent substrate with quencher; settings: synthetic substrate 7-MCA-Pro-CHA-Gly-NVal-His-Ala-DPA, 25° C. for 1 h; read-out: Experimental Example 3 IC50 MMP13
T2 construct: purchased R&D systems 511-MM
Experimental: Inhibitory activity of tested compounds on MMP-13 was measured using MMP-13 specific fluorescent substrate with quencher.
The enzyme and substrate were diluted with Tris-HCl buffer, and test compounds were diluted with dimethyl sulfoxide (DMSO).
Test compounds and the enzyme (Recombinant Human MMP-13: R&D systems, 511-MM) were added into 96-well plate. The reaction was initiated by adding synthetic substrate (7-MCA-Pro-CHA-Gly-NVal-His-Ala-DPA: enzyme systems products, Met-06) into the plate. After incubation at 25° C. for 1 h, the reaction was terminated by addition of reaction terminating solution containing acetic acid. Fluorescence intensity of each well was measured (Ex: 325 nm, Em: 405 nm) and the MMP-13 inhibitory activity of the compound in each well (%) was calculated based on the values of enzyme-free well and inhibitor-free well. The inhibitory activity of the compound was represented as IC50 (μM).

MMP-1 = molecular target: T3, MMP-1 (Homo sapiens, UniProt P03956); experiment: MMP-1 inhibitory action, Type I collagen Activity Measurement kit (FITC-labeled collagen type I); settings: 37° C. for 3 hr, read-out: Experimental Example 2 IC50 MMP1
T3 sequence (P03956 100-469): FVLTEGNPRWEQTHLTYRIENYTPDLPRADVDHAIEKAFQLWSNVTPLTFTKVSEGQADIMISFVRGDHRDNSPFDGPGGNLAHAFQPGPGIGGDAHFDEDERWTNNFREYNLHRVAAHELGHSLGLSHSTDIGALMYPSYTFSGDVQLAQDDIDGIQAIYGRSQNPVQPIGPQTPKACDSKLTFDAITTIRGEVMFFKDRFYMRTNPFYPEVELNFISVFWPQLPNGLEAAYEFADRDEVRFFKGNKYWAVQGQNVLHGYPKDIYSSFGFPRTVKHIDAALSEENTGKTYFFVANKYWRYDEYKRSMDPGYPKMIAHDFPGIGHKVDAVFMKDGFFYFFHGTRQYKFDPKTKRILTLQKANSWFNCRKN

For O=C(O)[C@@]12C[C@@]1(c1ccccc1)COCN2S(=O)(=O)c1ccc(-c2ccc(Cl)cc2)s1 (relative stereo) [Example 2-01, (1R*,6S*)-2-[5-(4-chlorophenyl)-thiophene-2-sulfonyl]-6-phenyl-4-oxa-2-aza-bicyclo[4.1.0]heptane-1-carboxylic acid], the IC50 (aggrecanase-1) was no less than 1000 nM, the IC50 (Recombinant Human MMP-13) was no less than 1000 nM and the IC50 (MMP-1) was no less than 10000 nM.

In the case of O=C(O)c1cnn(CCN([C@]2(C(=O)O)C[C@H]2c2ccccc2)S(=O)(=O)N2CCN(c3ccc(C(F)(F)F)cc3)CC2)c1 (relative stereo) [Example 2-05, 1-(2-{((1R*,2S*)-1-Carboxy-2-phenyl-cyclopropyl)-[4-(4-trifluoromethyl-phenyl)-piperazine-1-sulfonyl]-amino}-ethyl)-1H-pyrazole-4-carboxylic acid], the IC50 (aggrecanase-1) is reported as less than 1000 nM, the IC50 (Recombinant Human MMP-13) is reported as no less than 1000 nM and the IC50 (MMP-1) is reported as no less than 10000 nM.

For Nc1nnn(CCN([C@]2(C(=O)O)C[C@H]2c2ccccc2)S(=O)(=O)N2CCN(c3ccc(C(F)(F)F)cc3)CC2)n1 (relative stereo) [Example 2-06, (1R*,2S*)-1-{[2-(5-Amino-tetrazol-2-yl)-ethyl]-[4-(4-trifluoromethyl-phenyl)-piperazine-1-sulfonyl]-amino}-2-phenyl-cyclopropanecarboxylic acid], the IC50 (aggrecanase-1) was no less than 1000 nM, the IC50 (Recombinant Human MMP-13) was no less than 10000 nM and the IC50 (MMP-1) was no less than 10000 nM.

Nc1nnnn1CCN([C@]1(C(=O)O)C[C@H]1c1ccccc1)S(=O)(=O)N1CCN(c2ccc(C(F)(F)F)cc2)CC1 (relative stereo) [Example 2-07, (1R*,2S*)-1-{[2-(5-Amino-tetrazol-1-yl)-ethyl]-[4-(4-trifluoromethyl-phenyl)-piperazine-1-sulfonyl]-amino}-2-phenyl-cyclopropanecarboxylic acid] was tested, and the IC50 (aggrecanase-1) was no less than 1000 nM, the IC50 (Recombinant Human MMP-13) was no less than 10000 nM and the IC50 (MMP-1) was no less than 10000 nM.

In the case of O=C(O)[C@@]12C[C@]1(c1ccccc1)CCCN2S(=O)(=O)c1ccc(-c2ccc(Cl)cc2)s1 (relative stereo) [Example 2-13, (1R*,6S*)-2-[5-(4-Chloro-phenyl)-thiophene-2-sulfonyl]-6-phenyl-2-aza-bicyclo[4.1.0]heptane-1-carboxylic acid], the IC50 (aggrecanase-1) is reported as less than 1000 nM, the IC50 (Recombinant Human MMP-13) is reported as no less than 1000 nM and the IC50 (MMP-1) is reported as no less than 10000 nM.

In the case of O=C(O)[C@@]12C[C@]1(c1ccccc1)CCCN2S(=O)(=O)c1ccc(-c2cc(C(F)(F)F)on2)s1 (relative stereo) [Example 2-22, (1R*,6S*)-6-Phenyl-2-[5-(5-trifluoromethyl-isoxazol-3-yl)-thiophene-2-sulfonyl]-2-aza-bicyclo[4.1.0]heptane-1-carboxylic acid], the IC50 (aggrecanase-1) is reported as no less than 1000 nM, the IC50 (Recombinant Human MMP-13) is reported as no less than 1000 nM and the IC50 (MMP-1) is reported as no less than 10000 nM.

Work on O=C(O)[C@@]12C[C@]1(c1ccccc1)CCN2S(=O)(=O)c1ccc(-c2ccc(Cl)cc2)s1 (relative stereo) [Example 2-23, (1R*,5S*)-2-[5-(4-Chloro-phenyl)-thiophene-2-sulfonyl]-5-phenyl-2-aza-bicyclo[3.1.0]hexane-1-carboxylic acid] yielded an IC50 (aggrecanase-1) of no less than 1000 nM, an IC50 (Recombinant Human MMP-13) of no less than 1000 nM and an IC50 (MMP-1) of no less than 10000 nM.

CN([C@]1(C(=O)O)C[C@@]1(CN1CCOCC1)c1ccccc1)S(=O)(=O)c1ccc(-c2cc(C(F)(F)F)on2)s1 (relative stereo) [Example 2-24, (1R*,2S*)-1-{Methyl-[5-(5-trifluoromethyl-isoxazol-3-yl)-thiophene-2-sulfonyl]-amino}-2-morpholin-4-ylmethyl-2-phenyl-cyclopropanecarboxylic acid] gave an IC50 (aggrecanase-1) of no less than 1000 nM, an IC50 (Recombinant Human MMP-13) of no less than 10000 nM and an IC50 (MMP-1) of no less than 10000 nM.

O=C(O)[C@@]12C[C@]1(c1ccccc1)COC(CO)CN2S(=O)(=O)c1ccc(-c2ccc(Cl)cc2)s1 (relative stereo) [Example 2-26, (1R*,7R*)-2-[5-(4-Chloro-phenyl)-thiophene-2-sulfonyl]-4-hydroxymethyl-7-phenyl-5-oxa-2-aza-bicyclo[5.1.0]octane-1-carboxylic acid] was tested, and the IC50 (aggrecanase-1) was no less than 1000 nM, the IC50 (Recombinant Human MMP-13) was no less than 1000 nM and the IC50 (MMP-1) was no less than 10000 nM.

O=C1NS(=O)(=O)N(CCN(C2(C(=O)O)CC2c2ccccc2)S(=O)(=O)c2ccc(-c3ccc(Cl)cc3)cc2)C1=O (stereo not drawn) [Example 1-83, (1R*,2S*)-1-{(4′-chloro-biphenyl-4-sulfonyl)-[2-(1,1,3,4-tetraoxo-llambda*6*-[1,2,5]thiadiazolidin-2-yl)-ethyl]-amino}-2-phenyl-cyclopropanecarboxylic acid] gave an IC50 (aggrecanase-1) of less than 100 nM and an IC50 (MMP-1) of no less than 10000 nM.

In the case of NS(=O)(=O)NCCN(C1(C(=O)O)CC1c1ccccc1)S(=O)(=O)c1ccc(-c2ccc(Cl)cc2)cc1 (centres unmarked) [Example 1-84], the IC50 (aggrecanase-1) is reported as less than 1000 nM and the IC50 (MMP-1) is reported as no less than 10000 nM.

For O=C(O)c1cccc(CN(C2(C(=O)O)CC2c2cccc(OCCn3ccnc3)c2)S(=O)(=O)c2ccc(-c3ccc(Cl)cc3)cc2)c1 (stereo not drawn) [Example 1-95, 3-{[{(1R*,2S*-1-carboxy-2-[3-(2-imidazol-1-yl-ethoxy)-phenyl]-cyclopropyl}-(4′-chloro-biphenyl-4-sulfonyl)-amino]-methyl}-benzoic acid], the IC50 (aggrecanase-1) was less than 100 nM and the IC50 (MMP-1) was no less than 1000 nM.

For O=C(O)c1cccc(CN(C2(C(=O)O)CC2c2cccc(Oc3cccnc3)c2)S(=O)(=O)c2ccc(-c3ccc(Cl)cc3)cc2)c1 (stereo not drawn) [Example 1-102, 3-{[{(1R*,2S*-1-carboxy-2-[3-(pyridin-3-yloxy)-phenylcyclopropyl}-(4′-chloro-biphenyl-4-sulfonyl)-amino]-methyl}-benzoic acid], the IC50 (aggrecanase-1) was less than 100 nM and the IC50 (MMP-1) was no less than 10000 nM.

In the case of O=C(O)C(=O)c1ccc(CN(C2(C(=O)O)CC2c2ccccc2)S(=O)(=O)c2ccc(-c3ccc(Cl)cc3)cc2)cc1 (stereo not drawn) [Example 1-103, (1R*,2S*)-1-[(4′-chloro-biphenyl-4-sulfonyl)-(4-oxalyl-benzyl)-amino]-2-phenyl-cyclopropanecarboxylic acid], the IC50 (aggrecanase-1) is reported as less than 100 nM and the IC50 (MMP-1) is reported as no less than 10000 nM.

O=C(O)c1cn(CCN(C2(C(=O)O)CC2c2ccccc2)S(=O)(=O)c2ccc(-c3ccc(Cl)cc3)cc2)cn1 (stereo not drawn) [Example 1-104, 1-{2-[(1R*,2S*)-1-carboxy-2-phenyl-cyclopropyl)-(4′-chloro-biphenyl-4-sulfonyl)-amino]-ethyl}-1H-imidazole-4-carboxylic acid] gave an IC50 (aggrecanase-1) of less than 100 nM and an IC50 (MMP-1) of no less than 10000 nM.

For CN([C@@]1(C(=O)O)C[C@@H]1c1ccccc1)S(=O)(=O)c1ccc(-c2ccc(Cl)cc2)s1 [Example 2-03, (1S,2R)-1-{[5-(4-Chloro-phenyl)-thiophene-2-sulfonyl]-methyl-amino}-2-phenyl-cyclopropanecarboxylic acid], the IC50 (aggrecanase-1) was no less than 1000 nM, the IC50 (Recombinant Human MMP-13) was no less than 10000 nM and the IC50 (MMP-1) was no less than 10000 nM.

Compound O=C(O)C1(N(CCO)S(=O)(=O)c2ccc(-c3ccc(Cl)cc3)s2)CC1c1ccccc1 (stereo not drawn) [Example 2-04, (1R*,2S*)-1-[[5-(4-Chloro-phenyl)-thiophene-2-sulfonyl]-(2)-hydroxy-ethyl)-amino]-2-phenyl-cyclopropanecarboxylic acid] has an IC50 (aggrecanase-1) of no less than 1000 nM, an IC50 (Recombinant Human MMP-13) of no less than 1000 nM and an IC50 (MMP-1) of no less than 10000 nM.

O=C(O)CN([C@]1(C(=O)O)C[C@H]1c1ccccc1)S(=O)(=O)c1ccc(-c2ccc(Cl)cc2)s1 [Example 2-08, (1R,2S)-1-{Carboxymethyl-[5-(4-chloro-phenyl)-thiophene-2-sulfonyl]-amino}-2-phenyl-cyclopropanecarboxylic acid] showed an IC50 (aggrecanase-1) of less than 100 nM, an IC50 (Recombinant Human MMP-13) of no less than 10000 nM and an IC50 (MMP-1) of no less than 10000 nM.

With O=C(O)[C@@]1(N(CCN2CCOCC2)S(=O)(=O)c2ccc(-c3ccc(Cl)cc3)s2)C[C@H]1c1ccccc1 [Example 2-14, (1R,2S)-1-[[5-(4-Chloro-phenyl)-thiophene-2-sulfonyl]-(2-morpholin-4-yl-ethyl)-amino]-2-phenyl-cyclopropanecarboxylic acid] the IC50 (aggrecanase-1) was no less than 1000 nM and the IC50 (MMP-1) was no less than 10000 nM.
